# Measured values taken from publication PMC13210772, “Dual FLT3/MAPK14 Proteolysis-Targeting Chimera (PROTAC) Induces Potent Acute Myeloid Leukemia Cell Death” (Pharmaceuticals, 2026).
# What was measured:
# Assay in all cases: NanoBRET CELLinib128
# Type in all cases: binding
# PRKCE-PMA = molecular target: T1, PRKCE-PMA (Homo sapiens, UniProt Q02156); conditions: 100% no effect, 0% complete tracer displacement, read-out: Tracer bound
# T1 construct: Full-length kinase ORF (Promega, Madison, WI, USA) cloned in frame with a NanoLuc-vector was transfected into HEK293T cells; host or cells: HEK293T
# Method: (§1) To get an impression about the binding strength of the PROTAC MA191 and the reference inhibitor MA68 to other kinases besides FLT3-ITD the binding on a kinase panel of further 128 representative protein kinases at 1 μM concentration was tested using the NanoBRET^TM cellular target engagement assay (CELLinib128 assay, CELLinib GmbH, Frankfurt, Germany). […] In none of the 128 kinases MA191 was able to displace the tracer (inhibitor) used by more than 50%, Table S1, Supplementary Information).
# (§2) The CELLinib128 assay was performed by CELLinib GmbH, Frankfurt (Germany) as described previously. In brief: Full-length kinase ORF (Promega, Madison, WI, USA) cloned in frame with a NanoLuc-vector was transfected into HEK293T cells in Opti-MEM without phenol red (Life Technologies, Carlsbad, CA, USA) at a density of 2 × 10^5 cells/mL using FuGENE HD (Promega, E2312) and proteins were allowed to express for 20 h. For CDKs, where indicated below, an excess of an activator without an NLuc-fusion was cotransfected. […] The system was allowed to equilibrate at 37 °C for 2 h and 5% CO2 prior to BRET measurements. For PKCs, a chemical activator PMA was added in a final concentration of 1 µM was added together with test compounds and tracers (Promega, V1171). To measure BRET, NanoBRET^TM NanoGlo substrate + extracellular NanoLuc inhibitor (Promega, N2160) were added as per the manufacturer’s protocol, and filtered luminescence was measured (450 nm BP filter (donor) and 610 nm LP filter (acceptor)). For the 1-shot test compounds, data were normalized to the tracer control and the background control or control compound plateau and an average and SD were calculated. […] For the control compounds competitive displacement data were normalized to the tracer Ctrl and the background Ctrl and then plotted and fitted using GraphPad Prism 10 software using a normalized 3-parameter curve fit with the following equation: Y = 100/(1 + 10^X−LogIC50).
# FGFR2 = molecular target: T2, FGFR2 (Homo sapiens, UniProt P21802); conditions: 100% no effect, 0% complete tracer displacement, read-out: Tracer bound
# T2 construct: Full-length kinase ORF (Promega, Madison, WI, USA) cloned in frame with a NanoLuc-vector was transfected into HEK293T cells; host or cells: HEK293T
# Method: as §1, §2
# TRKA = molecular target: T3, TRKA (Homo sapiens, UniProt P04629); conditions: 100% no effect, 0% complete tracer displacement, read-out: Tracer bound
# T3 construct: Full-length kinase ORF (Promega, Madison, WI, USA) cloned in frame with a NanoLuc-vector; host or cells: HEK293T
# Method: as §1, §2
# RPS6KA6 = molecular target: T4, RPS6KA6 (Homo sapiens, UniProt Q9UK32); conditions: 1 µM; 100% no effect, 0% complete tracer displacement
# T4 construct: Full-length kinase ORF (Promega, Madison, WI, USA) cloned in frame with a NanoLuc-vector was transfected into HEK293T cells; host or cells: HEK293T
# Method: as §1, §2
# TNK2 = molecular target: T5, TNK2 (Homo sapiens, UniProt Q07912); conditions: 100% no effect, 0% complete tracer displacement, read-out: Tracer bound
# T5 construct: Full-length kinase ORF (Promega, Madison, WI, USA) cloned in frame with a NanoLuc-vector; host or cells: HEK293T
# Method: as §1, §2
# CDK18-CCNY = molecular target: T6, CDK18-CCNY (Homo sapiens, UniProt Q07002); conditions: 100% no effect, 0% complete tracer displacement, read-out: Tracer bound
# T6 construct: Full-length kinase ORF (Promega, Madison, WI, USA) cloned in frame with a NanoLuc-vector was transfected into HEK293T cells; host or cells: HEK293T
# Method: as §1, §2
# PTK2 = molecular target: T7, PTK2 (Homo sapiens, UniProt Q05397); conditions: 100% no effect, 0% complete tracer displacement, read-out: Tracer bound
# T7 construct: Full-length kinase ORF (Promega, Madison, WI, USA) cloned in frame with a NanoLuc-vector was transfected into HEK293T cells; host or cells: HEK293T
# Method: as §1, §2
# TBK1 = molecular target: T8, TBK1 (Homo sapiens, UniProt Q9UHD2); conditions: 100% no effect, 0% complete tracer displacement, read-out: Tracer bound
# T8 construct: Full-length kinase ORF (Promega, Madison, WI, USA) cloned in frame with a NanoLuc-vector was transfected into HEK293T cells; host or cells: HEK293T
# Method: as §1, §2
# CAMK2A = molecular target: T9, CAMK2A (Homo sapiens, UniProt Q9UQM7); conditions: 100% no effect, 0% complete tracer displacement, read-out: Tracer bound
# T9 construct: Full-length kinase ORF (Promega, Madison, WI, USA) cloned in frame with a NanoLuc-vector was transfected into HEK293T cells; host or cells: HEK293T
# Method: as §1, §2
# STK33 = molecular target: T10, STK33 (Homo sapiens, UniProt Q9BYT3); conditions: 100% no effect, 0% complete tracer displacement, read-out: Tracer bound
# T10 construct: Full-length kinase ORF (Promega, Madison, WI, USA) cloned in frame with a NanoLuc-vector was transfected into HEK293T cells; host or cells: HEK293T
# Method: as §1, §2
# BTK = molecular target: T11, BTK (Homo sapiens, UniProt Q06187); conditions: 1 µM; 100% no effect, 0% complete tracer displacement
# T11 construct: Full-length kinase ORF (Promega, Madison, WI, USA) cloned in frame with a NanoLuc-vector was transfected into HEK293T cells; host or cells: HEK293T
# Method: as §1, §2
# MAPK9 = molecular target: T12, MAPK9 (Homo sapiens, UniProt P45984); conditions: 1 µM; 100% no effect, 0% complete tracer displacement
# T12 construct: Full-length kinase ORF (Promega, Madison, WI, USA) cloned in frame with a NanoLuc-vector was transfected into HEK293T cells; host or cells: HEK293T
# Method: as §1, §2
# CHEK2 = molecular target: T13, CHEK2 (Homo sapiens, UniProt O96017); conditions: 100% no effect, 0% complete tracer displacement, read-out: Tracer bound
# T13 construct: Full-length kinase ORF (Promega, Madison, WI, USA) cloned in frame with a NanoLuc-vector was transfected into HEK293T cells; host or cells: HEK293T
# Method: as §1, §2
# STK4 = molecular target: T14, STK4 (Homo sapiens, UniProt Q13043); conditions: 1 µM; 100% no effect, 0% complete tracer displacement
# T14 construct: Full-length kinase ORF (Promega, Madison, WI, USA) cloned in frame with a NanoLuc-vector was transfected into HEK293T cells; host or cells: HEK293T
# Method: as §1, §2
# LATS1 = molecular target: T15, LATS1 (Homo sapiens, UniProt O95835); conditions: 100% no effect, 0% complete tracer displacement, read-out: Tracer bound
# T15 construct: Full-length kinase ORF (Promega, Madison, WI, USA) cloned in frame with a NanoLuc-vector was transfected into HEK293T cells; host or cells: HEK293T
# Method: as §1, §2
# T3 sequence (P04629 33-796): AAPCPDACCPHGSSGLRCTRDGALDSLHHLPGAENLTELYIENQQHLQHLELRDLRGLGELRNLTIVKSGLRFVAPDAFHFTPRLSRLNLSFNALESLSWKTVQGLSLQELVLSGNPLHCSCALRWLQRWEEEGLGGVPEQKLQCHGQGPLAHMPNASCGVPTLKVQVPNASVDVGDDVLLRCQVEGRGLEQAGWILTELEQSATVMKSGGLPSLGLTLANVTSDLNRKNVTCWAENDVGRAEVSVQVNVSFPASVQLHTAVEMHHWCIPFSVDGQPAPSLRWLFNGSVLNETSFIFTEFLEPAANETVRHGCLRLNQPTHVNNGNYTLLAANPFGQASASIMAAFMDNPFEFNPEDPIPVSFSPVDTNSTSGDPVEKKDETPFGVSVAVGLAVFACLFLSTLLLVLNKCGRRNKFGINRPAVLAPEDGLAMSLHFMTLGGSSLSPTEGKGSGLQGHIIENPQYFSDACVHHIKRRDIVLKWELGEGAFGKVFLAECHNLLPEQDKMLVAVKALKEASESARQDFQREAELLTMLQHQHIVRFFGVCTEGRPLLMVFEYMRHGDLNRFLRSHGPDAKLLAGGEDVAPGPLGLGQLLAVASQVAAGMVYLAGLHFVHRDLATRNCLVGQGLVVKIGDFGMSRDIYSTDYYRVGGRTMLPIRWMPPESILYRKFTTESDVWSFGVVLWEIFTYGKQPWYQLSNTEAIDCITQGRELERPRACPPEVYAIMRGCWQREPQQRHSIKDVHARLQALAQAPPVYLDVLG
# T2 sequence (P21802 22-821): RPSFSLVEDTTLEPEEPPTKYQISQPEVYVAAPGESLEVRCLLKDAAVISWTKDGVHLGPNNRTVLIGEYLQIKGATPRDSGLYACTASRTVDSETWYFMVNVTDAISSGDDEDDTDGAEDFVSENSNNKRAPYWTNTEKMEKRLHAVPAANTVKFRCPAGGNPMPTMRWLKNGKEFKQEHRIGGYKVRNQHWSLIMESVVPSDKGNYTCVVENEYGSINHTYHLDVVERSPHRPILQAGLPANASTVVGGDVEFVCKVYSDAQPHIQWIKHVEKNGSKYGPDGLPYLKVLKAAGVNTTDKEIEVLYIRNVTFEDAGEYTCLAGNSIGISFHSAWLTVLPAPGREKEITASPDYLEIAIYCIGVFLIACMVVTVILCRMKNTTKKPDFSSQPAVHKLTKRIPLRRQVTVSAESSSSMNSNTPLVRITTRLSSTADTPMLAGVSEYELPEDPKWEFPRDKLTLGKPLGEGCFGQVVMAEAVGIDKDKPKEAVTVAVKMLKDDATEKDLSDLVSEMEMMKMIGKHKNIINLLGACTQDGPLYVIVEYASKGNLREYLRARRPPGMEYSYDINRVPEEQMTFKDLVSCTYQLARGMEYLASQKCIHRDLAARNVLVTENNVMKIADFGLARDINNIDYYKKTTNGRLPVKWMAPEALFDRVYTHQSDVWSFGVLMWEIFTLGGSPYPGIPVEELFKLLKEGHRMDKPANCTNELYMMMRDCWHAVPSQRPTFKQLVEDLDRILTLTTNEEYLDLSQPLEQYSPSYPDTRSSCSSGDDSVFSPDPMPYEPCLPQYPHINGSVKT
# T6 sequence (Q07002 whole entry): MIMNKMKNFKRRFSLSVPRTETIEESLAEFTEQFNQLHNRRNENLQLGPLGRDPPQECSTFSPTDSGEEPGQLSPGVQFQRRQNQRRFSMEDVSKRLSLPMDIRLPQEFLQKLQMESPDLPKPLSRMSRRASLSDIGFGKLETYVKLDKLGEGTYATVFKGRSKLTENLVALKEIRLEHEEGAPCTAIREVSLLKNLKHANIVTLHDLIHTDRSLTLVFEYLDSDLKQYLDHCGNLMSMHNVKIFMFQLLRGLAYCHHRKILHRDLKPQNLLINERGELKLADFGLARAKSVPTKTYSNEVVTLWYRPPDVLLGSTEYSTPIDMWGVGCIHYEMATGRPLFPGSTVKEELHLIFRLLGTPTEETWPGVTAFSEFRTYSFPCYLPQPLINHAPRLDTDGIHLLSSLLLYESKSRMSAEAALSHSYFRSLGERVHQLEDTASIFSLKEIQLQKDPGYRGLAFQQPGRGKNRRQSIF
# T6 sequence (Q8ND76 whole entry partner): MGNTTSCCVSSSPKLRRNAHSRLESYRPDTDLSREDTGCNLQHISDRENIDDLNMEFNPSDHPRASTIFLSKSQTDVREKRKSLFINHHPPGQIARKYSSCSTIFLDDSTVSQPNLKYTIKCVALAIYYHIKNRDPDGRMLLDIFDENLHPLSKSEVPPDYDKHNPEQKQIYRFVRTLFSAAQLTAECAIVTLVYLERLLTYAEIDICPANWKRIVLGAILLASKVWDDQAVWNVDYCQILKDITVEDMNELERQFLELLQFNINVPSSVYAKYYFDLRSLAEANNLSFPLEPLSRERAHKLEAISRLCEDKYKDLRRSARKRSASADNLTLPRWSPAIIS
# T4 sequence (Q9UK32 whole entry): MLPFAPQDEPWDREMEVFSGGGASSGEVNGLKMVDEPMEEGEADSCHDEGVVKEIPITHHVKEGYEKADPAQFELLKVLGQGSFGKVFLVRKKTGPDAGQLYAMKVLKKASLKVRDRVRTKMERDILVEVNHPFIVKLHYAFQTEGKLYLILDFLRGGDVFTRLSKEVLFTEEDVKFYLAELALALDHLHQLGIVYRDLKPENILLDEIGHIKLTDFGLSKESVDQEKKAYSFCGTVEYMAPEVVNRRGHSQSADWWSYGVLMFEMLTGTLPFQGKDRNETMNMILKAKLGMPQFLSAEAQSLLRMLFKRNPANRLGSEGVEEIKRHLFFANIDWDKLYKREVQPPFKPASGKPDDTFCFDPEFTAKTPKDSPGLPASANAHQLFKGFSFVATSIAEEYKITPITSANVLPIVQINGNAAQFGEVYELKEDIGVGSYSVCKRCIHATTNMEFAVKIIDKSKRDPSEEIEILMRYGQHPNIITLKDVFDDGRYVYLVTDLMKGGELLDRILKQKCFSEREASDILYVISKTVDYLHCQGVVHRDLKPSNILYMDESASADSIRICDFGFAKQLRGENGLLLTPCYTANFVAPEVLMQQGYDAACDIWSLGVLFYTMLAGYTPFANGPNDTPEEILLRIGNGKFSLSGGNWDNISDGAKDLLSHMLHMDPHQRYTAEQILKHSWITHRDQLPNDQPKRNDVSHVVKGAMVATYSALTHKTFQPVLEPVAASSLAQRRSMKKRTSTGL
# T7 sequence (Q05397 whole entry): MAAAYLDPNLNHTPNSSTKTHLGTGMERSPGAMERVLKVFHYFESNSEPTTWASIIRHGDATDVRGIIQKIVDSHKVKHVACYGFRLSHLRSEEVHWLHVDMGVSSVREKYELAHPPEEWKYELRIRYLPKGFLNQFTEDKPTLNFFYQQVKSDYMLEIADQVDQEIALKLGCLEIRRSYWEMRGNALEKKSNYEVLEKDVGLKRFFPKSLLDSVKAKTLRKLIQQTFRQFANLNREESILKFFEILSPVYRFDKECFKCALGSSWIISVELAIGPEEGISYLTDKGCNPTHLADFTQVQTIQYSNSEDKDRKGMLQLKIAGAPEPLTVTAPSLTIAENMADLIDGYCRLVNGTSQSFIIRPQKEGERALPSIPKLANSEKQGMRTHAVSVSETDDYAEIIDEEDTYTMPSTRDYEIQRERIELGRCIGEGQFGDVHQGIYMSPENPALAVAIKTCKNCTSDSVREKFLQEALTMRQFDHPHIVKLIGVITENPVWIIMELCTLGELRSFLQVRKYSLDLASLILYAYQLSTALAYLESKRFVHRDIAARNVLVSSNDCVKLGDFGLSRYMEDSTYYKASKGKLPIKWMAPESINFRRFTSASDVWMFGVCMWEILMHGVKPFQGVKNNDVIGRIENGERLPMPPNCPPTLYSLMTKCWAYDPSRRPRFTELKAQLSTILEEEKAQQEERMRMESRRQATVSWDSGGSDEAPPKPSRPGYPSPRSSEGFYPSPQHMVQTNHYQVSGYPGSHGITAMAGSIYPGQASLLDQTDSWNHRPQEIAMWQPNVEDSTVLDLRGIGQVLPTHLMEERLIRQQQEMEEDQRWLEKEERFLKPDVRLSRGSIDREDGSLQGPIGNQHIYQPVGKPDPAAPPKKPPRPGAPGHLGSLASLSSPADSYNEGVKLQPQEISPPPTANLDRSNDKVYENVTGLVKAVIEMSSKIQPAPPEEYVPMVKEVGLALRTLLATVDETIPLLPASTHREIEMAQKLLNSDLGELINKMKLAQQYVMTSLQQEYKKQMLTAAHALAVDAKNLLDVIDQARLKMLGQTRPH
# T12 sequence (P45984 whole entry): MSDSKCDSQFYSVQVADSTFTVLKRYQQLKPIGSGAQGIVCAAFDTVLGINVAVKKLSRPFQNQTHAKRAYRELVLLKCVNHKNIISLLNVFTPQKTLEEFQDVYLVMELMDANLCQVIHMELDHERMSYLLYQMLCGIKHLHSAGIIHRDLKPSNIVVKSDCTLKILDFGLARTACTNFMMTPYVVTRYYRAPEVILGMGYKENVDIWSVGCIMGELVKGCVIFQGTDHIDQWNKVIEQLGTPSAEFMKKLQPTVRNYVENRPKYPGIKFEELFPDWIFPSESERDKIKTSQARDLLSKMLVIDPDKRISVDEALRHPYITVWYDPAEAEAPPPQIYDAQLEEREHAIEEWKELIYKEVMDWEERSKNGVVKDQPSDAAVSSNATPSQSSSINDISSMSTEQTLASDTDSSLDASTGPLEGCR
smiles,measurement,setting,value
"Cc1ncsc1-c1ccc([C@H](C)NC(=O)[C@@H]2C[C@@H](O)CN2C(=O)[C@@H](NC(=O)[C@H]2CC[C@H](C(=O)N3CCN(CCNC(=O)c4cc(Oc5ccc(NC(=O)Nc6cc(C(C)(C)C)on6)cc5)ccn4)CC3)CC2)C(C)(C)C)cc1 [MA191, 4-(4-(3-(5-(tert-Butyl)isoxazol-3-yl)ureido)phenoxy)-N-(2-(4-(trans-4-(((S)-1-((2S,4R)-4-hydroxy-2-(((S)-1-(4-(4-methylthiazol-5-yl)phenyl)ethyl)carbamoyl)pyrrolidin-1-yl)-3,3-dimethyl-1-oxobutan-2-yl)carbamoyl)cyclohexanecarbonyl)piperazin-1-yl)ethyl)picolinamide]",remaining activity at 1 µM,PRKCE-PMA,78.3%
same,remaining activity at 1 µM,FGFR2,109%
same,remaining activity at 1 µM,TRKA,103%
same,Tracer bound,RPS6KA6,107.5%
same,remaining activity at 1 µM,TNK2,118%
same,remaining activity at 1 µM,CDK18-CCNY,95.9%
same,remaining activity at 1 µM,PTK2,113%
same,remaining activity at 1 µM,TBK1,108%
same,remaining activity at 1 µM,CAMK2A,102%
same,remaining activity at 1 µM,STK33,99%
same,Tracer bound,BTK,120.0%
same,Tracer bound,MAPK9,101.6%
same,remaining activity at 1 µM,CHEK2,111%
same,Tracer bound,STK4,102.0%
same,remaining activity at 1 µM,LATS1,97.8%
